In patent US11219602B2 (VECTURA LIMITED, priority 2017, dated 2022) one finds D10, D50 and D90 data, which are given here for two molecules.

Values joined by “and” are separate entries in the source; they are usually repeats but may differ in a detail not shown here. Equal entries are not always repeated.

This series in a line: Particle size analysis (wet analysis), Malvern Mastersizer 3000. It is filed as physicochemical. Conditions: starting material before micronisation. On the procedure: The pump speed was set to 3000 rpm. […] The dispersed particles were added to the dispersion unit to reach an obscuration of 5-15%. […] Six replicates were performed per measurement.
Setting [1] is: listed as unmicronised glycopyrrolate.

Consider `C[N+]1(C)CCC(OC(=O)C(O)(c2ccccc2)C2CCCC2)C1` (stereo not drawn) [Unmicronised glycopyrrolate, glycopyrrolate], for which the D10 is listed as 2.89 μm, the D50 was 16.0 μm and the D90 came to 49.0 μm. Under setting [1], this molecule yielded a D10 of 1.09 μm, a D50 of 2.90 μm and a D90 of 10.4 μm.
As to magnesium stearate, the D10 is 2.8 μm and 2.06 μm; the D50 was 8.8 μm and 6.57 μm; the D90 was 27.4 μm and 19.9 μm.
